Values quoted from earlier work in patent publication US20260191865A1, “CANCER THERAPY WITH CAPIVASERTIB AND FULVESTRANT” (AstraZeneca AB, priority 2022, published 2026).
Like-named read-outs stand apart in the source and are kept apart here.

Tested on: ER-positive, HER2-negative advanced breast cancer

NC1(C(=O)N[C@@H](CCO)c2ccc(Cl)cc2)CCN(c2ncnc3[nH]ccc23)CC1 [capivasertib, (S)-4-amino-N-(1-(4-chlorophenyl)-3-hydroxypropyl)-1-(7H-pyrrolo[2,3-d]pyrimidin-4-yl)piperidine-4-carboxamide]
PFS and overall survival benefit (NGS-identified pathway non-altered subgroup): no such benefit | progression-free survival (PFS) (capivasertib added to fulvestrant, postmenopausal women, AI-resistant, no previous CDK4/6 inhibitor): significant improvement | PFS and overall survival benefit (expanded (NGS) PI3K/AKT/PTEN pathway-altered subgroup, updated analysis): significant PFS and overall survival benefit | benefit by original pathway status (secondary endpoint subgroup analysis) (original pathway-altered and original pathway non-altered subgroups, capivasertib added to fulvestrant): conferred benefit
